# According to patent US20050100891A1, “Gene expression profile for KSHV infection and methods for treating same” (priority 2000, published 2005):
# Entries after “also recorded” stand apart in the source; their conditions may differ.
# What was measured:
# ORF 65 (lytic gene) = assay: RT-PCR of late (lytic) gene ORF 65 in PMA-induced KSHV-infected DMVEC; type: cell-based; conditions: for late gene (ORF 65) expression: compound 1 hour before PMA, 48 hours, concentration not given
# Description: (§1) KSHV genes ORF 64 and K12 (kaposin) were used as reverse transcriptase PCR (RT-PCR) templates as described previously^(43). ORF 65 sequences were amplified with primers 5-[…] (SEQ ID NO: 5) and 5′-[…] (SEQ ID NO: 6). Cellular genes (HPRT, GAPDH, or -actin) were amplified from each sample as a control for cDNA synthesis. PCR products were visualized following electrophoresis on agarose-ethidium bromide gels.
# (§2) Cells were treated with inhibitory compounds or peptides for one hour and lytic replication was induced by PMA treatment for 48 hours. Ganciclovir was used as control compound for inhibition of KSHV-replication and late gene expression^(10). After 48 hours, cells were harvested and expression of the latent gene K12 as well as the late gene ORF 65 was analyzed by RT-PCR. For control, expression of cellular genes α-actin or HPRT was monitored. […] However, both Ht31 and Haloperidol inhibited late gene expression, but not latent gene expression. Since both inhibitors potentially interfere with PKC signaling, we examined whether Ht31 or Haloperidol would inhibit the PMA-mediated induction of immediate early genes. […] In addition, the peptide Ht-31 inhibits the association between A kinase anchoring proteins (AKAPs) and PKA (21, 64). […] Therefore we conclude that the signal transduction pathways regulated by the type I sigma receptor and AKAPs are required for lytic progression of KSHV.
# There is no specific inhibitor of Gravin identified, however the Ht-31 peptide derived from the PKA R-II binding domain of the human thyroid AKAP inhibits the AKAP/PKA interactions in vivo and in vitro ^(21, 64). A stearated version of this peptide is membrane permeable and can block the AKAP/PKA interaction in tissue culture. A requirement for PKA signaling can be inferred from the up-regulation of Gravin, and to further investigate the requirement for the AKAP/PKA interaction for KSHV late gene expression, infected and uninfected cells were treated with stearated Ht-31 at two concentrations (FIG. 7B). […] A stearated control peptide that is unable to interact with PKA, Ht-31P, had no effect on late gene expression (FIG. 7B, lanes 4-5). […] It is not possible to conclude whether the inhibitory effect of Ht-3 1 occurs through Gravin or any other AKAP, since Ht-31 inhibits a wide range of AKAP/PKA interactions.
# (§3) The type I Sigma receptor is antagonized by the antipsychotic drug Haloperidol^(66). To investigate the requirement of Sigma receptor function for late gene expression, cells were treated with 5 μM Haloperidol for 1 hour prior to PMA addition. […] The inhibition of late gene expression was more complete with Haloperidol than with Ganciclovir (FIG. 7D, lanes 5-6). In contrast, the purine […] phosphorylase inhibitor 8-aminoguanosine (8-AMG) had no effect on viral gene expression (FIG. 7D, lane 4).
# K12 (latent gene) = assay: RT-PCR of latent gene K12 in PMA-induced KSHV-infected DMVEC; type: cell-based
# Description: as §1, §2, §3
# immediate early gene K3 = assay: PMA-mediated induction of immediate early gene K3; type: cell-based, KSHV
# Epstein-Barr Virus (EBV) = conditions: cited from earlier work
# human Jurkat T cell line = assay: Proliferation of Jurkat T cell line in response to exogenous IL-2; type: cell-based
# SCLC cell lines = conditions: via inhibition of c-Kit activity; cited from earlier work
# KSHV-infected DMVEC [1] = assay: Transformation assay (focus formation, disorganized growth) in post-confluent culture; type: cell-based, human
# Description: (§4) To promote a transformed phenotype, KSHV-infected DMVEC were cultured post-confluency in 35 mm Primaria culture dishes. […] Cells were examined daily for evidence of phenotypic change using a phase-contrast microscope and results recorded photographically.
# (§5) To directly test whether KSHV-induction of c-Kit is necessary for virus-induced transformation, the consequence of inhibiting c-Kit signaling in KSHV-transformed DMVEC was evaluated.
# In this approach, a dominant negative c-Kit protein lacking the cytoplasmic ATP-binding and phosphotransferase domains necessary for c-Kit signaling (Ad/c-KitDN) was expressed in KSHV-infected cells using the adenovirus delivery system outlined above.
# Uninfected DMVEC = system: Uninfected DMVEC
# Description: as §4, §5
# KSHV-infected DMVEC [2] = assay: XTT-based proliferation assay, response to exogenous SCF; type: cell-based, human
# Description: (§6) Proliferation of mock and KSHV-infected DMVEC, and the SCLC line HTB-172, was quantitated using an XTT-based assay. Cells were added to Primaria 96 well trays (Becton-Dickinson) at 1×104 or 5×10^4 cells/well. […] XTT (Roche, Molecular Biochemicals, Indianapolis, Ind.) was added 48 hours later according to the manufacturers instructions. Absorbance was read after 4 to 6 hours on a microplate reader. The HTB-172 line was obtained from the American Type Culture Collection (ATCC, Rockville, Md.).
# Mock- and KSHV-infected DMVEC were cultured in growth factor depleted medium in the absence and presence of recombinant SCF and proliferation was measured using an XTT-based dye reduction assay^(112).
# mock-infected DMVEC = assay: as above; type: cell-based, human
# Description: as §6
# To examine whether KSHV-induced up-regulation of c-Kit had functional consequences, we tested whether the mitogenic response of DMVEC to exogenous SCF was enhanced following KSHV infection. Mock- and KSHV-infected DMVEC were cultured in growth factor depleted medium in the absence and presence of recombinant SCF and proliferation was measured using an XTT-based dye reduction assay^(112). […] In mock-infected cultures, the increase over basal proliferation in the […] of recombinant SCF was never more than 40%, while proliferation of KSHV-infected DMVEC was increased by as much as 85%. During KS disease, an enhanced capacity of KSHV-infected endothelial cells to respond to SCF produced by adjacent endothelial cells, or by macrophages and mast cells infiltrating the KS lesion, would promote more rapid growth of virus infected cells.
# [3] = 5 μM Haloperidol for 1 hour prior to PMA addition
compound,measurement,setting,value
Nc1nc2c(nc(N)n2[C@@H]2O[C@H](CO)[C@@H](O)[C@H]2O)c(=O)[nH]1 [8-aminoguanosine],"viral gene expression (K12, ORF 65)",ORF 65 (lytic gene); 10 μM 8-aminoguanosine,no effect
Nc1nc(O)c2ncn(COC(CO)CO)c2n1 [Ganciclovir],latent gene (K12) expression,"K12 (latent gene); compound 1 hour before PMA, 48 hours, concentration not given",did not interfere
same,late gene (ORF 65) expression,ORF 65 (lytic gene),inhibited
O=C(CCCN1CCC(O)(c2ccc(Cl)cc2)CC1)c1ccc(F)cc1 [Haloperidol],induction of the immediate early gene K3,immediate early gene K3,neither compound prevented induction
same,replication of Epstein-Barr Virus in tissue culture,Epstein-Barr Virus (EBV),inhibit
same,expression of the latent K12 gene,K12 (latent gene); [3],did not affect
same,ORF 65 expression,ORF 65 (lytic gene); [3],significantly reduced
same,completeness of inhibition of late gene expression compared with Ganciclovir,ORF 65 (lytic gene); 5 μM Haloperidol vs 25 μM Ganciclovir,more complete
same,late gene (ORF 65) expression,ORF 65 (lytic gene),inhibited
Cc1ccc(NC(=O)c2ccc(CN3CCN(C)CC3)cc2)cc1Nc1nccc(-c2cccnc2)n1 [STI 571],effect on capacity to proliferate in response to exogenous IL-2,human Jurkat T cell line,no effect
same,non-specific cytotoxicity (trypan blue exclusion),DMVEC,not due to non-specific cytotoxicity
same,growth of SCLC cell lines in vitro,SCLC cell lines,inhibit
same,focus formation of KSHV-transformed DMVEC,"KSHV-infected DMVEC [1]; STI 571 0.01-10 μM, 5 days, organized monolayer re-established",inhibited
same,drug concentration at which the effect on the transformed phenotype was complete,KSHV-infected DMVEC [1]; dose-dependent,1 µM
same,effect on cell morphology or viability,Uninfected DMVEC,no effect
same,proliferative response of KSHV-infected DMVEC to exogenous SCF,"KSHV-infected DMVEC [2]; 1 μM dose, SCF 50 ng/ml, XTT assay",completely inhibited
Ht-31: peptide derived from the PKA R-II binding domain of human thyroid AKAP; inhibits AKAP/PKA interactions (WKNVLQGGESTKERFENSNIGTA),induction of the immediate early gene K3,immediate early gene K3,neither compound prevented induction
same,level of K12 RNA,K12 (latent gene); 25 μM,without affecting
same,ORF 65 expression,"ORF 65 (lytic gene); 5 μM Ht-31, PMA induction",efficiently repressed
same,ORF 65 expression,"ORF 65 (lytic gene); 25 μM, PMA induction",inhibited; also recorded: efficiently repressed
same,late gene (ORF 65) expression,ORF 65 (lytic gene),inhibited
"SCF: recombinant stem cell factor, ligand of c-Kit",SCF concentration of maximal dose-dependent proliferation,mock-infected DMVEC; mock-infected DMVEC,50 to 100 ng/mL
same,increase over basal proliferation in the absence of recombinant SCF,"mock-infected DMVEC; mock-infected cultures, exogenous SCF 20-100 ng/ml",≤ 40%
same,SCF concentration of maximal dose-dependent proliferation,KSHV-infected DMVEC [2]; KSHV-infected DMVEC,50 to 100 ng/mL
same,increase over basal proliferation in the absence of recombinant SCF,"KSHV-infected DMVEC [2]; KSHV-infected DMVEC, exogenous SCF 20-100 ng/ml",≤ 85%
